Columns and labels:
[1] = SFNA/αCD association constant by 1H NMR titration in D2O; format: physicochemical; conditions: 298 K, SFNA 2 mM against increasing α-cyclodextrin
Description: The preparation of inclusion complexes was carried out by a physical mixture in water between α-cyclodextrin (host) and the sulforaphane analogue (guest; SFNA). The confirmation of complex formation, its stoichiometry, association constant (Kas), and degree of degradation were determined using ^1H NMR spectroscopy.
Determination of the SFNA/αCD association constant. The determination of association constants (Kas, M^-1) for the SFNA/αCD complex was performed through ^1H NMR titration experiments in D2O. The association constants at 298 K were experimentally determined by measuring the changes in chemical shift (Δδ, ppm) of the ^1H NMR signals using fixed solutions of the analogues against increasing concentrations of α-cyclodextrin. In a typical titration experiment, a 2 mM solution of the SFN analogue in D2O was prepared, and a 500 µL aliquot was transferred to the NMR tube, and the initial spectrum was recorded. Furthermore, a solution of a mixture (SFNA at 2 mM/ αCD at 16.11 mM) was prepared and added in 10 µL aliquots to the NMR tube, keeping the analogue concentration constant. The added amounts of α-cyclodextrin were increased until complete complexation of the analogue, and ^1H NMR spectra were recorded after each addition. The mathematical treatment of the curves of chemical shift variations of the analogue proton signals (Δδ) against increasing α-cyclodextrin concentrations using an iterative least-squares fitting procedure allowed for the determination of the Kas values for the analogues (Table 1).

AML cell lines = format: cell-based, human
Nrf2 = assay: Nrf2-ARE induction, luciferase assay in AREc32 cells; format: cell-based; conditions: CD: concentration required to double the specific activity of the luciferase gene, 24 h treatment
[2] = test system: normal cell subpopulations from healthy donors; assay: Ex vivo cell viability by flow cytometry on normal cells; format: cell-based, human; conditions: normal cell subpopulations from healthy donors including hematopoietic precursor cells, 18 h
Description: Primary human cells from healthy donors were used in ex vivo assays. The mononuclear fraction was extracted with Ficoll-Paque by density gradient centrifugation and subsequently differentiated from the other cell populations by flow cytometry using an appropriate combination of antibodies: anti-human CD45-Pacific Blue, CD34-FITC, CD19-APC-H7 (BD Biosciences, San Jose, CA) and CD3-FITC (Invitrogen).
Cell viability and cell lysis were also assessed by annexin V/7-AAD using flow cytometry. Donor cells were analysed using 7-AAD a combination of monoclonal antibodies (anti-CD45-Pacific Blue, anti-CD34-FITC, anti-CD3-FITC, anti-CD19-APC-H7). The cells were acquired with the FACSCanto II flow cytometer (BD Biosciences) and analysed with the Infinicyt™ software (Cytognos, Spain).

For `CCOP(=O)(CCCCN=C=S)OCC` [SFN-14, Diethyl (4-isothiocyanatobutyl)phosphonate], the Kas [1] was 135,95 M^-1 and the “proapoptotic effect on AML cell lines” value (AML cell lines) was “partially selective proapoptotic effect”.
For `CCOP(=O)(OCC)OCCCN=C=S` [SFN-10, Diethyl (3-isothiocyanatopropyl) phosphate], the “CD ± SEM” value (Nrf2) was 0.56 ± 0.07 µM, the “viability of normal healthy cells” value [2] was “not affected” and the Kas [1] was 34,87 M^-1. For the same compound, the “proapoptotic effect on AML cell lines” value (AML cell lines) was “partially selective proapoptotic effect”.
With `O=P(OCCCN=C=S)(Oc1ccccc1)Oc1ccccc1` [SFN-16, Diphenyl 3-isothiocyanatopropyl phosphate] the “CD ± SEM” value (Nrf2) was 1.55 ± 0.45 µM.
`C[S+]([O-])CCCCN=C=S` (stereo not shown) [SFN-1, sulforaphane, reference compound] gave an EC (2-fold) (Nrf2; read-out: CD ± SEM) of 0.44 ± 0.28 µM.
For `CC(C)OP(=O)(OCCCN=C=S)OC(C)C` [SFN-15, Diisopropyl (3-isothiocyanatopropyl) phosphate], the “CD ± SEM” value (Nrf2) was 0.52 ± 0.08 µM and the Kas [1] was 101,95 M^-1.

— patent EP4549446A1 (priority 2023, dated 2025)
